Source: a melting point compilation (Tetko et al.)

melting point [°C]	Compound
127 to 129	O=C(O)CSCCS(=O)(=O)c1ccc(Cl)cc1
221 to 226	CC(=O)c1ccc(O)c(C(N)=O)c1
152	COc1ccc(/C=C2\CN(S(=O)(=O)c3ccc(C)cc3)c3ccccc3N2S(=O)(=O)c2ccc(C)cc2)cc1
39.5	O=CNC1CCCCC1
56	O=C(c1ccccc1)c1ccc(F)c(F)c1
141 to 142	CCOC(=O)c1cc2c(oc1=O)-c1ccc(OC)cc1CC2
69 to 72	OC1CC(O)C(O)CO1 (centres undefined)
36 to 37	FC(F)(F)c1ccc2nsnc2c1
144 to 146	CC(C)(C)c1cc(C#N)cc(C(C)(C)C)c1O
60.5	O=C(C=Cc1ccco1)C=Cc1ccco1
45 to 48	N#Cc1ccccc1N1CCCCC1
71	COC(=O)C(=O)C1CCc2cc(OC)ccc2C1=O (centres undefined)
28.5	Sc1ccccc1S
98 to 102	COC1C(C(O)CO)OC2OC3(CCCCC3)OC21 (centres undefined)
110 to 111	COC(=O)c1csc2c(C(F)(F)F)cc(Cl)nc12
174	CCOc1ccc(-c2ccc(OCC)cc2)cc1
239	Cc1nc2ccccc2nc1-c1cc(-c2nc3ccccc3nc2C)c([N+](=O)[O-])cc1[N+](=O)[O-]
174	Oc1ccc(Nc2ccc(O)cc2)cc1
90	N#Cc1ccnc(C#N)c1
55	CCO[Si](CCCNC(=O)c1ccc([N+](=O)[O-])cc1)(OCC)OCC
95 to 98	CCCSc1sc(C(=O)OC)c2c1C(=O)CC(C)(C)C2

melting point [°C]	Compound
255 to 265	c1ccc(C2=C(c3ccccc3)NC(c3ccncc3)N2)cc1
161 to 165	CC(=O)c1cc(Cl)c(N)c(Cl)c1
160	O=C(O)c1cc(Br)ccc1Cl
179	CCOC(=O)c1ccc([N+](=O)[O-])cc1NC(=O)c1ccccc1
104	CC12CCC(C(C(=O)c3cccc4ccccc34)C1=O)C2(C)C (centres undefined)
150 to 151	CC(=O)c1ccc(NC(=O)CCl)cc1
186	O=C(O)c1sccc1Cl
184 to 185	C/C(=N\c1ccccc1)c1c(O)c2ccccc2n(-c2ccccc2)c1=O
301	O=C(O)/C=C/C=C/C(=O)O
205	Cc1ccc(NC(=O)C=CC(=O)O)cc1
320	Nc1nc(O)nc2[nH]ncc12
263	N#C/C(=N\Nc1c(Cl)cc(Cl)cc1Cl)c1nc2ccccc2[nH]1
78	O=Cc1ccc2c(Br)cccc2c1
186	CN(C)c1ccc(C2CC(c3ccc4ccccc4c3)=NN2c2ccccc2)cc1 (centres undefined)
280 to 282	Clc1ccc(C=NNc2ncnc3c2cnn3-c2ccccc2)cc1
-7	C1CCCCCCCCCC1
84	O=C(NC(CSSCC(NC(=O)OCc1ccccc1)C(=O)O)C(=O)O)OCc1ccccc1 (centres undefined)
46	Cc1ccc(C=O)cc1[N+](=O)[O-]
212	COC(=O)c1nc(Cl)c(N)nc1N
179	O=C(Nc1ccc(O)cc1)c1ccccc1O
150	COc1ccc(N/N=C(\C#N)c2nc(-c3ccccc3)cs2)cc1

Second part, the compound before the results:

Compound	melting point [°C]
CSc1nc2[nH]c(=S)n(-c3ccccc3C(=O)O)c(=O)c2n1C	284
CC(C)c1nc2ccccc2[nH]1	235
Cn1c(=O)c2c(ncn2CCCl)n(C)c1=O	122 to 127
COc1ccccc1C1(C)CCc2oc3ccc(Cl)cc3c2-c2oc(C)cc21 (centres undefined)	197 to 198
CC(=O)Oc1cc2c(cc1Cl)C1(OC(=O)c3ccccc31)c1cc(Cl)c(OC(C)=O)cc1O2	239 to 246
COC1(C)OC(CNc2ccc(S(C)(=O)=O)cc2)C(CNc2ccc(S(C)(=O)=O)cc2)OC1(C)OC (centres undefined)	194 to 195
O=C(O)c1c(C(=O)O)c(C(=O)O)c(C(=O)O)c(C(=O)O)c1C(=O)O	287
COC(=O)C1Cc2ccccc2N1C(=O)OC(C)(C)C (centres undefined)	73 to 75
c1ccc(-c2ccccc2P(C2CCCCC2)C2CCCCC2)cc1	102 to 106
Nc1ccc2c(c1)CS(=O)(=O)C2	186 to 187
Cc1cc(C(=O)O)c(C)[nH]1	200
CCC(Nc1ncnc(C)c1Cl)c1ccc(OC(F)F)cc1 (centres undefined)	47.8
CC[C@H](C)[C@H](NC(=O)OCc1ccccc1)C(=O)O	52 to 54
O=c1ccc2cc(OC3OC(CO)C(O)C(O)C3O)c(O)cc2o1 (centres undefined)	205
COC(=O)CC[C@H](N)C(=O)O	182
C[Si]1(C)O[Si](C)(C)O[Si](C)(C)O[Si](C)(C)O[Si](C)(C)O[Si](C)(C)O[Si](C)(C)O[Si](C)(C)O1	31.5
O=C1CCc2ccc(OCCCCN3CCN(c4cccc(Cl)c4Cl)CC3)cc2N1	139
O=C(c1ccccc1)c1ccc(F)c(C(F)(F)F)c1	46
CC(C)(C)OC(=O)N1CCN(Cc2cccc([N+](=O)[O-])c2)CC1	84 to 85
CC(C=CC=C(C)C=CC1(O)C(C)(C)CCCC1(C)O)=CC=CC=C(C)C=CC(=O)O (centres undefined)	213
COc1ncnc(NS(=O)(=O)c2ccc(N)cc2)c1OC	192
COC(=O)c1sccc1N	66 to 67
O=[N+]([O-])c1c(Cl)cccc1-c1c[nH]cc1Cl	124
CC(=O)Nc1ccc2c(NC(C)=O)c(O)ccc2c1	235
Brc1ccc(I)cn1	124
NCS(=O)(=O)O	180 to 185

Compound	melting point [°C]
CCOC(O)C(Cl)(Cl)Cl (centres undefined)	56.5
Cc1cc(N)ccc1F	35 to 37
Cc1nc(O)nc(O)c1C	297 to 300
O=Cc1ccc(O)c(Cl)c1	139
COc1ccc(-c2nnc3n2NC(c2ccccc2OC)S3)cc1 (centres undefined)	166
O=[N+]([O-])c1cc(-c2ccc(O)cc2)ccc1O	182
O=C(c1ccccn1)c1ccccn1	53 to 55
O=C(O)C[C@H](NC(=O)OCC1c2ccccc2-c2ccccc21)c1cccc([N+](=O)[O-])c1	140
CC(C)COC(N)=O	67
CSc1nc2ccccc2s1	44
CC12CCC(O)CC1=CCC1C2CCC2(C)C1CCC2(O)C#Cc1ccccc1 (centres undefined)	162 to 165
O=S(=O)(c1ccc(O)cc1)c1ccc(O)cc1	248
Cc1ccc(S(=O)(=O)c2ncsc2SCC(=O)c2ccc(Cl)cc2)cc1	212 to 213
O=C(Oc1ccc(O)cc1)c1ccccc1	166
O=S(=O)(O)c1cccnc1	300
Nc1snnc1-c1ccccc1	144 to 147
Cn1c(=O)oc(=O)c2ccccc21	165
CN(C(=O)CN(CCO)CC(=O)N(C)C(C)(C)Cc1ccccc1)C(C)(C)Cc1ccccc1	104
CCCC(=O)Cl	-89
CCCCC(CC)C(=O)O (centres undefined)	-59
CCOc1c(Br)cc(Br)cc1C=O	87 to 87.5
Cc1nnc(SCc2ccccc2)n1N=Cc1ccccc1Cl	121 to 123
COc1cc(Cl)nc(N)n1	169 to 176
COc1ccc(C(=O)CCCCl)cc1	32
COc1cccc(P(c2cccc(OC)c2)c2cccc(OC)c2)c1	115
[O-][P+](c1ccccc1)(c1ccccc1)C1c2ccccc2Oc2ccccc21	161

Compound	melting point [°C]
COc1cccc2cc(C(=O)Cc3c(C)cc(C)cc3C)oc12	121 to 122
Cc1cc(C)c(O)cc1O	126
COc1ccccc1NC(=O)CC(C)=O	86
FC(F)(F)c1cc(Cl)c2cc(Br)ccc2n1	98 to 100
CC1C/C(=C\c2ccc([N+](=O)[O-])cc2)C(=O)/C(=C/c2ccc([N+](=O)[O-])cc2)C1 (centres undefined)	192 to 193
FC(F)(F)C(F)(F)C(F)(F)C(F)(F)C(F)(F)I	-50
CC(CC(C)(C)C1CCCCC1)C1CCCCC1 (centres undefined)	-30
O=C(O)c1cccnc1F	164 to 165
CC1CCC(C(C)C)C(OC(=O)C(C(=O)c2ccccc2)C(=O)c2ccccc2)C1 (centres undefined)	138
FC(F)(F)c1ccc(P(c2ccc(C(F)(F)F)cc2)c2ccc(C(F)(F)F)cc2)cc1	72 to 75
NNC(=O)COc1ccccc1CSc1ccc(Cl)cc1	118 to 121
O=C(Cl)c1ccc(N=Nc2ccccc2)cc1	93 to 97
C(C=C(c1ccccc1)c1ccccc1)=C(c1ccccc1)c1ccccc1	198
COC(=O)c1cc(C(=O)OC)cc([N+](=O)[O-])c1	122
Cn1c(/C(C#N)=N/Nc2cccc(Cl)c2)nc2ccccc21	165
CC(C)(C)OC(=O)N1CCN(c2ccc(I)cn2)CC1	102 to 105
O=Cc1ccc(-c2cccc([N+](=O)[O-])c2)o1	156 to 158
CCOP(=O)(OCC)Oc1c2cccc1Cc1cccc(c1O)Cc1cccc(c1OP(=O)(OCC)OCC)Cc1cccc(c1O)C2	219 to 224
O=C(O)c1cc(Cl)cc(Cl)c1Cl	166
CC1=CC(=O)C=CC1=O	69
COc1cc2c(cc1OC)C(c1ccccc1[N+](=O)[O-])N(C(C)=O)CC2 (centres undefined)	132 to 134
CCC(C(=O)Nc1cccc2ccccc12)C1CCC(OC)CC1 (centres undefined)	163
CC(C)C(C)C=CC(C)C1CCC2C3=CC=C4CC(O)CCC4(C)C3CCC21C (centres undefined)	170
CN1CCOc2cc(C=O)ccc21	70 to 71
Cc1cc(C(F)(F)F)n2nc(N)c(/N=N/c3ccccc3[N+](=O)[O-])c2n1	235
